# In paper PMC6435570, “Zafirlukast Is a Dual Modulator of Human Soluble Epoxide Hydrolase and Peroxisome Proliferator-Activated Receptor γ” (Frontiers in Pharmacology, 2019):
# Experiments:
# [1] = molecular target: T1, human PPARγ ligand binding domain (Homo sapiens, UniProt P37231); experiment: PPAR reporter gene assay (Gal4 hybrid, PPARγ); conditions: for Emax: read-out: PPARγ maximal activation, HEK-293T, relative to pioglitazone (1 μM)
# T1 sequence (P37231 238-503 limits assumed): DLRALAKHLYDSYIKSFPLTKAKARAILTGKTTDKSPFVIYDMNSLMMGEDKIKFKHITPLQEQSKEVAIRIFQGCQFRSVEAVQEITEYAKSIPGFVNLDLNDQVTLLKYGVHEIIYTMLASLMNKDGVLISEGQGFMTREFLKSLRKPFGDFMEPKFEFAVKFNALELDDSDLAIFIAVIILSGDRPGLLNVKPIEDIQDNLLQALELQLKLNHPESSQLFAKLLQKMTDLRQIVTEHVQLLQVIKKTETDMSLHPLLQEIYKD
# Method: HEK-293T cells were seeded in 96-well plates (2.5 × 10^4 cells/well) and were allowed to adhere overnight. Before transfection, medium was changed to Opti-MEM without supplements. Transient plasmid transfection was carried out using Lipofectamine LTX reagent (Invitrogen, Carlsbad, CA, United States) according to the manufacturer’s protocol with pFR-Luc (Stratagene, La Jolla, CA, United States), pRL-SV40 (Promega, Fitchburg, MA, United States) and pFA-CMV-PPAR-LBD ([Rau et al., 2006]). 5 h after transfection, medium was changed to Opti-MEM supplemented with penicillin (100 U/mL) and streptomycin (100 μg/mL), now additionally containing 0.1% DMSO and the respective test compound or 0.1% DMSO alone as untreated control. Each concentration was tested in triplicates and each experiment was repeated independently at least four times. Following overnight (12–16 h) incubation with the test compounds, cells were assayed for luciferase activity using the Dual-Glo^TM Luciferase Assay System (Promega, Fitchburg, MA, United States) according to the manufacturer’s protocol. Luminescence was measured with an Infinite M200 luminometer (Tecan Group Ltd., Männedorf, Switzerland). Normalization of transfection efficiency and cell growth was done by division of firefly luciferase data by renilla luciferase data and multiplying the value by 1000 resulting in relative light units (RLU). Fold activation was obtained by dividing the mean RLU of a test compound at a respective concentration by the mean RLU of untreated control. Relative activation was obtained by dividing the fold activation of a test compound at a respective concentration by the fold activation of the respective PPARα, γ or δ full agonist GW-7647, pioglitazone or L165,041 at 1 μM. EC50 and standard deviation were calculated with the mean relative activation values of at least four independent experiments by SigmaPlot 10.0 (Systat Software GmbH, Erkrath, Germany) using a four parameter logistic regression.
# For this, a hybrid receptor construct containing the respective human PPAR ligand binding domain and hinge region fused to the DNA binding domain of the yeast nuclear receptor Gal4 and a Gal4-responsive firefly luciferase construct were co-transfected into HEK-293T cells together with a plasmid constitutively expressing Renilla luciferase for normalization of transfection efficiency and cell growth. Activation of the PPAR isoforms was compared to 1 μM of the well characterized agonists GW7647, L165,041, and pioglitazone for PPARα, δ, and γ, respectively.
# [2] = molecular target: T2, PPARγ-LBD / CBP-derived peptide (Homo sapiens, UniProt P37231); experiment: PPARγ coactivator (CBP) recruitment assay, HT-FRET; assay type: biochemical; conditions: for Induction of CBP recruitment by the compound itself: absence of rosiglitazone
# T2 construct: 12 nM recombinant PPARγ-LBD fused to N-terminal GFP as FRET acceptor
# T2 sequence (P37231 238-503 limits assumed): T1 sequence (P37231 238-503 limits assumed)
# Excerpt: Recruitment of coactivator-derived peptides to the PPARγ-LBD was studied by homogeneous time-resolved fluorescence resonance energy transfer (HT-FRET). Terbium cryptate as streptavidin conjugate (Cisbio assays, France) was used as FRET donor. Peptides derived from the coactivator cyclic AMP response element-binding protein (CREB)-binding protein (CBP) [biotin-[…]] encompassing the coactivator consensus motif LxxLL and N-terminal biotin for stable coupling to streptavidin were purchased from Eurogentec GmbH (Cologne, Germany). Solutions containing 12 nM recombinant PPARγ-LBD fused to N-terminal GFP as FRET acceptor and 12 nM FRET donor complex with the CBP-derived peptide as well as 1% DMSO with test compound at varying concentrations or DMSO alone were prepared in HEPES buffer [25 mM HEPES pH 7.5 adjusted with KOH, 150 mM KF, 5% (w/v) glycerol, 0.1% (w/v) CHAPS, 5 mM DTT]. After 2 h incubation at RT, the fluorescence intensities (FI) at 520 nm (acceptor) and 620 nm (donor reference) after excitation at 340 nm were recorded on a Tecan Infinite F200 (Tecan Group Ltd., Männedorf, Switzerland). FI520nm was divided by FI620nm and multiplied with 10,000 giving a dimensionless HTRF signal. Recruitment of coactivator-derived peptides to the PPARγ-LBD was validated with increasing concentrations of rosiglitazone. Recruitment of CBP was referenced to recruitment in response to 1 μM rosiglitazone (∼EC80) and reported as relative coactivator recruitment.
# We induced this post-translational modification by short-term treatment of the differentiated cells with the cytokine TNFα, generating a pro-inflammatory milieu. […] For this, we used an assay system in which the recruitment of the fluorescence-tagged PPARγ coactivator CBP to the PPARγ-LBD was assessed by time-resolved FRET technique in presence and absence of rosiglitazone.
# [3] = test system: PPARγ target genes (LPL, GLUT-4, FABP-4, adiponectin) in 3T3-L1 adipocytes; experiment: PPARγ target gene mRNA expression in differentiated 3T3-L1 adipocytes (qRT-PCR); assay type: cell-based, murine; conditions: after 14 days; for mRNA expression of PPARγ target genes (LPL, GLUT-4, FABP-4, adiponectin): normalized to cells with activation cocktail only
# Method: 3T3-L1 cells were differentiated into adipocytes for 14 days according to the protocol of [Zebisch et al. (2012)]. For this, cells were seeded in 6-well plates ([…]) and differentiation was induced after 48 h by addition of a differentiation cocktail containing 1 μg/mL insulin, 0.25 μM dexamethasone and 0.5 mM isobutylmethylxanthine (IBMX) in DMEM supplemented with 10% FCS and 1% PS. […] After 2 days, medium was replaced by DMEM supplemented with 10% FCS, 1% PS and 1 μg/mL insulin for 2 more days. Afterwards, cells were kept for lipid droplet accumulation in DMEM containing 10% FCS and 1% PS until day 15. Media were replaced every other day.
# 3T3-L1 cells were lysed using TRIzol® reagent (Ambion Life Technologies, Carlsbad, CA, United States). Subsequently, mRNA was isolated following the manufacturers protocol. DNA contaminations were digested using DNAse (DNase I, RNase-free Kit; Thermo Scientific, Waltham, MA, United States) and mRNA concentrations were determined using a NanoDrop^TM2000 spectrophotometer (Thermo Scientific, Waltham, MA, United States). Afterwards, reverse transcription was performed using the High Capacity RNA-to-cDNA Kit (Applied Biosystems, Foster City, CA, United States) following the manufacturers protocol. […] Relative mRNA expression was determined by the 2^-ΔΔCt method normalized to murine non-POU domain-containing octamer binding protein (Nono). All samples were measured in triplicates and experiments were repeated independently at least three times.
# To gain further insight in PPARγ activation after compound treatment, mature 3T3-L1 adipocytes were harvested after 14 days and mRNA was isolated, reverse transcribed and subjected to quantitative RT-PCR. mRNA expression of the PPARγ target genes lipoprotein lipase (LPL), the glucose transporter 4 (GLUT-4), the fatty acid binding protein 4 (FABP-4) and adiponectin was monitored by quantitative PCR (Figure 3A–D and Supplementary Figure S1). […]
Emax ([1]; HEK-293T) [%],EC50 [1] [µM],"PPARγ maximal activation ([1]; HEK-293T, relative to pioglitazone (1 μM)) [%]","IC50 ([2]; rosiglitazone 1 μM, after 2 h, read-out: IC50 for antagonism of rosiglitazone induced CBP recruitment) [µM]",Compound,Induction of CBP recruitment by the compound itself [2],Antagonism of rosiglitazone induced CBP recruitment ([2]; presence of rosiglitazone (1 μM)),"mRNA expression of PPARγ target genes (LPL, GLUT-4, FABP-4, adiponectin) [3]",Adiponectin mRNA level ([3]; compared to the other target genes)
21.9,–,–,–,"CC(C)(O)c1ccccc1CC[C@@H](SCC1(CC(=O)O)CC1)c1cccc(/C=C/c2ccc3ccc(Cl)cc3n2)c1 [Montelukast, montelukast]",did not induce CBP recruitment itself in concentrations up to 20 μM,weakly antagonized the rosiglitazone induced CBP recruitment in concentrations above 3 μM,did not influence the expression,–
~150,2.49 ± 0.45,148 ± 15,4.7,"COc1cc(C(=O)NS(=O)(=O)c2ccccc2C)ccc1Cc1cn(C)c2ccc(NC(=O)OC3CCCC3)cc12 [Zafirlukast, zafirlukast]",did not induce CBP recruitment itself,–,dose-dependently induced target gene expression although to a lesser extent compared to rosiglitazone,elevated adiponectin levels more effectively compared to the other target genes
